Test results as given in patent US9168329B2, “Beta-peptides with antifungal activity” (Wisconsin Alumni Research Foundation, priority 2006, dated 2015).

Legend:
[1] = test system: human red blood cells (hRBC); assay: Hemolysis assay; assay type: cell-based
Protocol: Hemolysis assay. The hemolysis assay was performed using human red blood cells (hRBC) as described previously (Raguse, et al. J. Am. Chem. Soc. 2002, 124, 12774-12785; Porter, et al. J. Am. Chem. Soc. 2005, 127, 11516-11529). The hRBC were washed three times in TRIS-buffered saline (TBS; 10 mM TRIS, 150 mM NaCl, pH 7.2) and then diluted to a concentration of 1% (v/v) in TBS. The hRBC suspension (80 μL) was added to twofold dilutions of peptides in TBS (20 μL) in a 96-well plate (Falcon). Wells containing hRBC treated with 20 μL TBS provided a negative control, and wells with high concentrations of the peptide melittin (Sigma) served as a positive control. After incubating at 37° C. for 1 h, plates were centrifuged, and 50 μL of the supernatant was diluted with 50 μL of water in a fresh 96-well plate. The absorbance of the diluted supernatant was measured at 405 nm, and the percent hemolysis for each well was calculated from
[formula] where A405^peptide is the absorbance for the supernatant of hRBC treated with peptide, A405^buffer is the absorbance for the supernatant of hRBC in TBS, and A405^completlysis is the average absorbance for the supernatant of cells treated with melittin at concentrations of 50-400 μg/mL. Experiments were performed in duplicate on at least two different days. Biofilm Antifungal Susceptibility Testing

[2] = test system: Candida albicans biofilms (ATCC 90028, ATCC 24433, SC5314); assay: Biofilm antifungal susceptibility testing (pre-formed biofilms, XTT); assay type: cell-based
Protocol: The susceptibility of Candida albicans biofilms to β-peptide treatment was evaluated using procedures based on the method described by Ramage and Lopez-Ribot. (Ramage, G.; Lopez-Ribot, J. L. Methods Mol. Med. 2005, 118, 71-79). ATCC 90028, ATCC 24433, and SC5314 were grown in liquid yeast peptone dextrose (YPD) medium overnight at 30° C. The cells were washed two times with phosphate-buffered saline (PBS, pH 7.2) and resuspended in RPMI 1640 (with L-glutamine and without sodium bicarbonate, Invitrogen) buffered with 0.145 mol/L 3-(N-morpholino) propanesulfonic acid (MOPS). After adjusting the cell suspension to about 1×10^6 cells/mL in RPMI 1640, 100 μL of the cell suspension was added to selected wells of flat-bottom 96-well plates (Falcon), leaving the last column of wells empty for background controls. Plates were covered and incubated at 37° C. for 48 hours to allow biofilms to form.
After formation, biofilms were washed three times with 200 μL of PBS per well to remove nonadherent cells. Twofold serial dilutions of β-peptide in RPMI 1640 were made, and 100 μL was added to the biofilms in the first 10 columns of the 96-well plates. RPMI 1640 without antifungal (100 μL) was added to the wells in column 11 to serve as a positive growth control. Plates were covered and incubated at 37° C. for an additional 48 hours and then washed as before.
A solution of 0.5 g/L of 2,3-bis(2-methoxy-4-nitro-5-sulfo-phenyl)-2H-tetrazolium-5-carboxanilide (XTT, Sigma) was prepared, and 10 mM menadione (Sigma) in acetone was added to give a final menadione concentration of 1 μM. The XTT solution (100 μL) was added to each well containing a biofilm and to the empty column of wells. The plates were incubated for 1.5 hours at 37° C. to allow the C. albicans cells to reduce the XTT. Following incubation, 75 μL of XTT solution was removed from each well and put into a new 96-well plate to measure the absorbance at 490 nm. The reduction of growth for each concentration of β-peptide was calculated from
[formula] where A490^peptide is the average absorbance for wells containing a specified concentration of a β-peptide, A490^no drug is the average absorbance for wells with biofilms not treated with antifungal, and A490^XTT is the average absorbance for wells containing only XTT. At least three replicates were included for each combination of β-peptide and C. albicans strains. Assay for Biofilm Formation in the Presence of β-Peptide

[3] = test system: Candida albicans (SC5314, ATCC 24433, ATCC 90028); assay type: cell-based
Protocol: Minimum inhibitory concentration assay. Minimum inhibitory concentrations (MIC) for the β-peptides were determined using the broth microdilution assay described by the Committee for Clinical and Laboratory Standards (formerly known as the National Committee for Clinical Laboratory Standards) (National Committee for Clinical Laboratory Standards Reference method for broth dilution antifungal susceptibility testing of yeasts: approved standard—second edition; NCCLS document M27-A2; NCCLS: Wayne, Pa., 2002). Three strains of Candida albicans were used: SC5314, ATCC 24433, and ATCC 90028. Cells were grown for 24 hours on Sabouraud dextrose agar at 30° C. After 24 hours of growth, the cells were suspended in 0.145 M saline, and the concentration was adjusted to between 1×10^6 cells/mL and 5×10^6 cells/mL in saline. The working suspension was obtained by diluting the suspension 1:1000 in RPMI 1640 (with L-glutamine and without sodium bicarbonate, Invitrogen) buffered with 0.145 mol/L 3-(N-morpholino) propanesulfonic acid (MOPS).
Twofold serial dilutions of stock solutions of α- or β-peptides or amphotericin B (Calbiochem, solubilized in dimethyl sulfoxide) were made in RPMI 1640, and 100 μL aliquots were put into 96-well plates (Falcon). An equal volume of the cell suspension was added to the wells for a total volume of 200 μL. Growth controls and sterility controls were included.
Plates were incubated at 35° C. for 48 h and then visually inspected for fungal growth. […] Experiments were performed in duplicate and repeated on at least two different days.

[4] = test system: C. albicans strain SC5314; assay: Assay for biofilm formation in the presence of β-peptide; assay type: cell-based, Candida albicans
Protocol: The ability of Candida albicans to form biofilms in the presence of β-peptide was tested using a procedure modified from the protocol for testing biofilms pre-formed in 96-well plates. C. albicans strain SC5314 was grown in liquid yeast peptone dextrose (YPD) medium overnight at 30° C., and the cells were washed twice with PBS (pH 7.2). Cells were resuspended in RPMI 1640, and the cell concentration was adjusted to about 2×10^6 cells/mL in RPMI 1640.
Twofold serial dilutions of β-peptide and amphotericin B were prepared in RPMI 1640, and 50 μL of each dilution was added to wells of a 96-well plate. At least three replicates were included. β-Peptide-free control wells were also included. An equal volume of the cell suspension was added to give a final cell concentration of 1×10^6 cells/mL. Plates were covered and placed in a 37° C. incubator for 48 hours.
After allowing biofilms to form for 48 hours, nonadherent cells were removed from the wells by washing the biofilms three times with 200 μL of PBS per well. A 0.5 g/L XTT solution with 1 μM menadione was prepared, and 100 μL was added to each biofilm formation well and to empty wells for XTT background measurements. […] The absorbance of the solution in each well was measured at 490 nm, and the reduction of growth for biofilms grown in the presence of β-peptide and amphotericin B compared to biofilms grown in medium only was calculated from […]

C. albicans = details: cited from earlier work
[5] = test system: Candida albicans (SC5314, ATCC 24433, ATCC 90028); details: from NCCLS document M27-A2; cited from earlier work
[6] = pH 7, physiological ionic strength

Q: For `CC(C)[C@@H](CC(=O)N[C@@H](CCCCN)CC(=O)N[C@H]1CCCC[C@@H]1C(=O)N[C@H](CC(=O)N[C@@H](CCCCN)CC(=O)N[C@H]1CCCC[C@@H]1C(=O)N[C@H](CC(=O)N[C@@H](CCCCN)CC(N)=O)C(C)C)C(C)C)NC(=O)[C@H]1CCCC[C@@H]1NC(=O)C[C@@H](N)Cc1ccc(O)cc1` [β-peptide 1, β^3Tyr-(ACHC-β^3Val-β^3Lys)3], which “% Hemolysis at MIC” value [1] is on record?
A: 21%

Q: And the “concentration killing (nearly all cells in) pre-formed biofilms” value ([2]; pre-formed biofilms)?
A: 256 µg/mL

Q: And the “Average MIC” value ([3]; average over three C. albicans strains, pH 7, physiological ionic strength, Table 1 prints no unit)?
A: 16 µg/mL

Q: And the “antifungal activity in the planktonic NCCLS assay (in words)” value (“antifungal activity” for short) [3, 6]?
A: showed activity in the planktonic assay

Q: And the “biofilm-preventing concentration relative to planktonic MIC” value [4]?
A: two times its planktonic MIC

Q: And the “concentration completely preventing biofilm formation” value [4]?
A: 32 µg/mL

Q: What does the source list for magainin 2?
A: concentration reducing C. albicans growth by 50% (C. albicans; pH 7, low ionic strength solutions): below 1 μg/ml; activity against C. albicans (in words) (C. albicans; pH 7, physiologic ionic strength): inactive

Q: Which MIC range [5] does the source give for `OC(Cn1cncn1)(Cn1cncn1)c1ccc(F)cc1F` [fluconazole] here?
A: 0.8 to 3.3 µM

Q: For `CCCCCCCCCCCCCCC(=O)N[C@H](CC(=O)N[C@H]1CCCC[C@@H]1C(=O)N[C@H]1CCCC[C@@H]1C(=O)N[C@@H](CCCCN)CC(=O)N[C@H]1CCCC[C@@H]1C(=O)N[C@H]1CCCC[C@@H]1C(=O)N[C@@H](CCCCN)CC(=O)N[C@H]1CCCC[C@@H]1C(=O)N[C@H]1CCCC[C@@H]1C(=O)N[C@@H](CCCCN)CC(N)=O)Cc1ccc(O)cc1` [C15-β^3Tyr-(ACHC-ACHC-β^3Lys)3], which “reduction in biofilm growth” value ([2]; at the highest concentration tested) is on record?
A: barely surpassed this mark

Q: And the “activity in the biofilm killing assay (in words)” value ([2]; pre-formed biofilms)?
A: low activity

Q: What about the “antifungal activity” value [3, 6] of the same compound?
A: lacking activity in the planktonic assay

Q: And the MIC ([3]; planktonic, strain not stated)?
A: > 128 µg/mL

Q: What does the source list for β^3Tyr-ACHC-(ACHC-β^3Lys)3-ACHC-ACHC?
A: activity in the biofilm killing assay (in words) ([2]; pre-formed biofilms): low activity; antifungal activity in the planktonic NCCLS assay (in words) [3, 6]: lacking activity in the planktonic assay

Q: For `C[C@@H]1[C@H](O)[C@@H](C)/C=C/C=C/C=C/C=C/C=C/C=C/C=C/[C@H](O[C@@H]2O[C@H](C)[C@@H](O)[C@H](N)[C@@H]2O)C[C@@H]2O[C@](O)(C[C@@H](O)C[C@@H](O)[C@H](O)CC[C@@H](O)C[C@@H](O)CC(=O)O[C@H]1C)C[C@H](O)[C@H]2C(=O)O` [Amphotericin B], which MIC range [5] is on record?
A: 0.3 to 2.2 µM

Q: For β^3Tyr-(ACHC-β^3Val-β^3Lys)2, which “activity in the biofilm killing assay (in words)” value ([2]; pre-formed biofilms) is on record?
A: low activity

Q: And the “antifungal activity” value [3, 6]?
A: lacking activity in the planktonic assay
